Measurements reported in article PMC5717651, “Biotransformation of labdane and halimane diterpenoids by two filamentous fungi strains” (Royal Society Open Science, 2017).
Where two headings read alike, the source gives them in different places.

Experiments:
[1] = target: T1, human serum butyrylcholinesterase (Hu-BChE) (Homo sapiens, UniProt P06276); assay: On-flow Hu-BChE-ICER-IT-MS/MS screening assay (hydrolysis of acetylcholine, choline quantified); assay type: biochemical; conditions: for inhibitory activity on Hu-BChE (in words): authors' verbal rating
T1 construct: purchased Sigma-Aldrich B4186; host or cells: human serum
T1 sequence (P06276 29-602): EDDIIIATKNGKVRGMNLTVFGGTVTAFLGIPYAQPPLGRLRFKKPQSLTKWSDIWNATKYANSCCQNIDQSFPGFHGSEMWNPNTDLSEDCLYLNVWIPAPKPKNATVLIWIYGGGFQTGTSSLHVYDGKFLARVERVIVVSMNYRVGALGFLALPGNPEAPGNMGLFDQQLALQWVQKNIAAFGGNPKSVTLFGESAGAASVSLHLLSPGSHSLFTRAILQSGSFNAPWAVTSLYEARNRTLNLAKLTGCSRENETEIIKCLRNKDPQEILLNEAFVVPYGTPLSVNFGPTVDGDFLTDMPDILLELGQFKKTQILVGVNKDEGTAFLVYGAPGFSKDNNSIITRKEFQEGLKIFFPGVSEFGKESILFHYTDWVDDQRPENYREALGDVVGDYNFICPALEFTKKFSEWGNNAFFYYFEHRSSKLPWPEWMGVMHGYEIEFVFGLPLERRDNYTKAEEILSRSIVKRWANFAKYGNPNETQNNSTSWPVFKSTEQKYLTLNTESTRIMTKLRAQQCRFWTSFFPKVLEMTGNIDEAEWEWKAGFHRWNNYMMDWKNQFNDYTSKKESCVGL
Protocol: (§1) Hr-AChE-ICER and Hu-BChE-ICER were prepared by covalent enzyme immobilization onto fused silica capillary tubing (30 cm × 0.375 mm × 100 µm I.D.) according to a previously described procedure. Resulting ICERs were connected to an on-flow LC-IT-MS/MS system (EMU FAPESP—Proc. PROEM 2014/50299-5) as biochromatography columns.
(§2) LC system (Shimadzu, Kyoto, Japan) consisted of two Nexera LC-20ADXR pumps, an SIL 20A auto sampler, with a 50 µl loop, a DGU-20A5 degasser and a CBM-20 interface. LC equipment was connected to an AmaZon Speed Ion Trap Mass Spectrometer equipped with an ESI source, operating in positive ion mode. Data were acquired using software Data Analysis 4.1 (Bruker Daltonics). LC analyses were performed at 25°C. Enzymatic reactions were monitored by direct quantification of choline (Ch, [M + H]^+ m/z 104), the hydrolysis product of ACh.
(§3) Samples were solubilized in methanol to provide a stock solution of 1.00 mM for each compound. Assay samples (100 µl) were prepared using 10 µl of stock solution (100 µM final concentration), 20 µl of acetylcholine solution (70 µM final concentration) and 70 µl of ammonium acetate solution (15.0 mM, pH 8.0). Solutions were prepared in duplicate and 20 µl aliquots were used for injection. Negative (absence of ACh) and positive (presence of ACh and absence of ligand) controls were analysed between each AChEI sample.

[2] = target: T2, human recombinant acetylcholinesterase (Hr-AChE) (Homo sapiens, UniProt P22303); assay: biochemical; conditions: for inhibition at 100 µM: pH 8, at 100 µM compound, 70 µM acetylcholine, ammonium acetate 15.0 mM, pH 8.0, n = 3, read-out: % inhibition ± s.e.m. ICER-AChEhr; for inhibitory activity on Hr-AChE (in words): authors' verbal rating
T2 construct: purchased Sigma-Aldrich C1682
T2 sequence (P22303 32-614): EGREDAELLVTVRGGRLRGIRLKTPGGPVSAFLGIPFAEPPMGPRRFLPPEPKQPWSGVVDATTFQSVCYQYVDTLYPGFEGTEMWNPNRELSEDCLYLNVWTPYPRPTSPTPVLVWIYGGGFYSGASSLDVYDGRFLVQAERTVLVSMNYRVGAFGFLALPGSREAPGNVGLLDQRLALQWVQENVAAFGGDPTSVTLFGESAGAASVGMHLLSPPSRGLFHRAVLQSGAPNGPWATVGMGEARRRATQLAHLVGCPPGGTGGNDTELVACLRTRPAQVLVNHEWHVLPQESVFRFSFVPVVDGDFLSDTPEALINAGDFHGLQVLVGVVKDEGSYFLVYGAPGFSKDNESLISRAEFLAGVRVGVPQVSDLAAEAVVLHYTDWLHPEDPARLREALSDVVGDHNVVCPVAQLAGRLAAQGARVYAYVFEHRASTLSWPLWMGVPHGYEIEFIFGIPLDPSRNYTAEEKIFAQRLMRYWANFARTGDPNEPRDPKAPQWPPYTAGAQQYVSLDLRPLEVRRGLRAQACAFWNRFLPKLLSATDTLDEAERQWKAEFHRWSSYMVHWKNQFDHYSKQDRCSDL
Protocol: as §1, §2, §3

[3] = at 100 µM compound, 70 µM acetylcholine, ammonium acetate 15.0 mM, pH 8.0, n = 3, read-out: % inhibition ± s.e.m. ICER-BChEhu
[4] = immobilized Hr-AChE capillary reactor (ICER), read-out: IC50 AChEhr

C/C(=C\C(=O)O)CC[C@H]1[C@](C)(O)[C@H](O)C[C@H]2C(C)(C)CCC[C@@]21C (relative stereo) [Compound 7, (-)-(5S*, 7R*, 8R*, 9R*, 10S*)-Lab-13-en-7α,8α-diol-15-oic acid]
inhibition at 100 µM [1, 3]: 20.1 ± 1.73% | IC50 [2, 4]: > 100 µM | inhibition at 100 µM [2]: 4.71 ± 0.11%

C/C(=C\C(=O)O)CC[C@]1(C)C2=CCC[C@@](C)(C=O)[C@H]2CC[C@H]1C [Compound 6, (+)-(4R, 5S, 8R, 9S)-18-Formyl-ent-halima-1(10),13-(E)-dien-15-oic acid]
inhibition at 100 µM [1, 3]: 25.07 ± 0.14% | IC50 [2, 4]: > 100 µM | inhibition at 100 µM [2]: 3.23 ± 1.7%

C/C(=C\C(=O)O)CC[C@]1(C)C2=CCCC(CO)(CO)[C@H]2CC[C@H]1C [Compound 4, (+)-(5S, 8R, 9S)-18,19-Dihydroxy-ent-halima-1(10),13-(E)-dien-15-oic acid]
inhibition at 100 µM [1, 3]: 14.5 ± 2.42% | IC50 [2, 4]: > 100 µM | inhibition at 100 µM [2]: 39.4 ± 3.86%

C/C(=C\C(=O)O)CC[C@@H]1[C@@]2(C)CC[C@H](O)C(C)(C)[C@@H]2CC[C@@]1(C)O (relative stereo) [Compound 8, (+)-(3S*, 5S*, 8R*, 9R*, 10S*)-Lab-13-en-3β,8α-diol-15-oic acid]
inhibition at 100 µM [1, 3]: 13.3 ± 2.62% | inhibitory activity on Hr-AChE (in words) [2]: weakly active | IC50 [2, 4]: 95.7 ± 1.7 µM | inhibition at 100 µM [2]: ~50%

COc1ccc2c3c1O[C@H]1C[C@@H](O)C=C[C@@]31CCN(C)C2 [Gal, Galanthamine, reference compound]
inhibition at 100 µM ([1]; pH 8, read-out: % inhibition ± s.e.m. ICER-BChEhu): 75.8 ± 1.74%

C/C(=C\C(=O)O)CC[C@@H]1[C@@]2(C)CCCC(C)(C)[C@@H]2CC[C@@]1(C)O [Compound 2, (+)-(5S, 8R, 9R, 10S)-Lab-13-en-8α-ol-15-oic acid]
inhibition at 100 µM [1, 3]: 13.3 ± 0.39% | inhibitory activity on Hu-BChE (in words) [1]: weak inhibitory activity | IC50 [2]: > 100 µM | inhibitory activity on Hr-AChE (in words) [2]: weak inhibitory activity | inhibition at 100 µM [2]: 26.5 ± 3.1%

C/C(=C\C(=O)O)CC[C@]1(C)C2=CCC[C@@](C)(CO)[C@H]2CC[C@H]1C [Compound 1, (+)-(4R, 5S, 8R, 9S)-18-Hydroxy-ent-halima-1(10),13-(E)-dien-15-oic acid]
inhibition at 100 µM [1, 3]: 36.09 ± 0.28% | inhibitory activity on Hu-BChE (in words) [1]: weak inhibitory activity | inhibitory activity on Hr-AChE (in words) [2]: weak inhibitory activity | IC50 [2, 4]: > 100 µM | inhibition at 100 µM [2]: 24.96 ± 0.04%

C/C(=C\C(=O)O)CC[C@]1(C)C2=CCC[C@@](C)(C(=O)O)[C@H]2CC[C@H]1C [Compound 5, (+)-(4R, 5S, 8R, 9S)-18-Carboxy-ent-halima-1(10),13-(E)-dien-15-oic acid]
inhibition at 100 µM [1, 3]: 8.17 ± 1.32% | inhibitory activity on Hr-AChE (in words) [2]: inactive | IC50 [2, 4]: > 100 µM | inhibition at 100 µM [2]: ~50%

C/C(=C\C(=O)O)CC[C@]1(C)C2=CC(=O)C[C@@](C)(CO)[C@H]2CC[C@H]1C [Compound 3, (+)-(4R, 5S, 8R, 9S)-2-Oxo-18-hydroxy-ent-halima-1(10),13-(E)-dien-15-oic acid]
inhibition at 100 µM [1, 3]: 14.5 ± 2.47% | IC50 [2, 4]: > 100 µM | inhibition at 100 µM [2]: 30.13 ± 0.3%
